Experimental data reported in PubChem BioAssay AID2060614 (Molecular Pharmacology Branch, DTP, NCI, 2025).

Tested on: 598228-144-R-J1-PDC complex spheroids, viability
Assay: Anticancer human tumor 598228-144-R-J1-PDC patient-derived serous endometrial adenocarcinoma cell line growth inhibition [CLK]
Details: for IC50: curve of first compound; for viability, T/C: stronger effect = lower value
In short: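 Patient-derived tumor cells grown as complex spheroids with HUVEC endothelial cells and mesenchymal stem cells, treated with drug combinations. Concentrations descend in half-log steps from near clinical Cmax, or from 10 microM if Cmax unknown.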

[1] = second compound 0.0316 µM, first compound 0.0316 µM
[2] = second compound 0.0316 µM, first compound 0.1 µM
[3] = second compound 0.0316 µM, first compound 0.316 µM
[4] = second compound 0.0316 µM, first compound 1 µM
[5] = second compound 0.0316 µM, first compound 3.16 µM
[6] = second compound 0.0316 µM, first compound 10 µM
[7] = second compound 0.1 µM, first compound 0.0316 µM
[8] = second compound 0.1 µM, first compound 0.1 µM
[9] = second compound 0.1 µM, first compound 0.316 µM
[10] = second compound 0.1 µM, first compound 1 µM
[11] = second compound 0.1 µM, first compound 3.16 µM
[12] = second compound 0.1 µM, first compound 10 µM
[13] = second compound 0.316 µM, first compound 0.0316 µM
[14] = second compound 0.316 µM, first compound 0.1 µM
[15] = second compound 0.316 µM, first compound 0.316 µM
[16] = second compound 0.316 µM, first compound 1 µM
[17] = second compound 0.316 µM, first compound 3.16 µM
[18] = second compound 0.316 µM, first compound 10 µM
[19] = second compound 1 µM, first compound 0.0316 µM
[20] = second compound 1 µM, first compound 0.1 µM
[21] = second compound 1 µM, first compound 0.316 µM
[22] = second compound 1 µM, first compound 1 µM
[23] = second compound 1 µM, first compound 3.16 µM
[24] = second compound 1 µM, first compound 10 µM
[25] = second compound 3.16 µM, first compound 0.0316 µM
[26] = second compound 3.16 µM, first compound 0.1 µM
[27] = second compound 3.16 µM, first compound 0.316 µM
[28] = second compound 3.16 µM, first compound 1 µM
[29] = second compound 3.16 µM, first compound 3.16 µM
[30] = second compound 3.16 µM, first compound 10 µM
[31] = second compound 10 µM, first compound 0.0316 µM
[32] = second compound 10 µM, first compound 0.1 µM
[33] = second compound 10 µM, first compound 0.316 µM
[34] = second compound 10 µM, first compound 1 µM
[35] = second compound 10 µM, first compound 3.16 µM
[36] = second compound 10 µM, first compound 10 µM
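Note: spheroids exposed to compounds for seven days before readout.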
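Throughout, for viability, T/C: 100% = DMSO vehicle control wells.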

Question: For `CC(=O)O[C@H]1C(=O)[C@@]2(C)[C@H]([C@H](OC(=O)c3ccccc3)[C@]3(O)C[C@H](OC(=O)[C@H](O)[C@@H](NC(=O)c4ccccc4)c4ccccc4)C(C)=C1C3(C)C)[C@]1(OC(C)=O)CO[C@@H]1C[C@@H]2O` + CNC(=O)c1ccc(Nc2nc(OC3CCCC3)c3c(-c4ccc5nc(C)oc5c4)c[nH]c3n2)c(OC)c1, which IC50 (second compound 0.0316 µM) is on record?
Answer: < 31.6 nM

Question: And the IC50 (second compound 0.1 µM)?
Answer: > 10000 nM

Question: And the IC50 (second compound 0.316 µM)?
Answer: > 10000 nM

Question: And the IC50 (second compound 1 µM)?
Answer: > 10000 nM

Question: What about the IC50 (second compound 3.16 µM) of the same compound?
Answer: > 10000 nM

Question: And the IC50 (second compound 10 µM)?
Answer: > 10000 nM

Question: And the viability, T/C [1]?
Answer: 45.6%

Question: And the viability, T/C [2]?
Answer: 46.2%

Question: And the viability, T/C [3]?
Answer: 40.3%

Question: What about the viability, T/C [4] of the same compound?
Answer: 40.9%

Question: And the viability, T/C [5]?
Answer: 45.2%

Question: What about the viability, T/C [6] of the same compound?
Answer: 50.6%

Question: What about the viability, T/C [7] of the same compound?
Answer: 70%

Question: And the viability, T/C [8]?
Answer: 58%

Question: And the viability, T/C [9]?
Answer: 64.8%

Question: What about the viability, T/C [10] of the same compound?
Answer: 66.2%

Question: And the viability, T/C [11]?
Answer: 57.4%

Question: And the viability, T/C [12]?
Answer: 67%

Question: And the viability, T/C [13]?
Answer: 121%

Question: What about the viability, T/C [14] of the same compound?
Answer: 123%

Question: And the viability, T/C [15]?
Answer: 94.9%

Question: What about the viability, T/C [16] of the same compound?
Answer: 108%

Question: What about the viability, T/C [17] of the same compound?
Answer: 106%

Question: And the viability, T/C [18]?
Answer: 84.1%

Question: And the viability, T/C [19]?
Answer: 120%

Question: What about the viability, T/C [20] of the same compound?
Answer: 102%

Question: And the viability, T/C [21]?
Answer: 92.5%

Question: And the viability, T/C [22]?
Answer: 125%

Question: What about the viability, T/C [23] of the same compound?
Answer: 109%

Question: And the viability, T/C [24]?
Answer: 86.8%

Question: And the viability, T/C [25]?
Answer: 102%

Question: What about the viability, T/C [26] of the same compound?
Answer: 96.2%

Question: And the viability, T/C [27]?
Answer: 103%

Question: And the viability, T/C [28]?
Answer: 108%

Question: And the viability, T/C [29]?
Answer: 105%

Question: And the viability, T/C [30]?
Answer: 92.1%

Question: And the viability, T/C [31]?
Answer: 101%

Question: What about the viability, T/C [32] of the same compound?
Answer: 97%

Question: What about the viability, T/C [33] of the same compound?
Answer: 109%

Question: And the viability, T/C [34]?
Answer: 103%

Question: And the viability, T/C [35]?
Answer: 90.4%

Question: What about the viability, T/C [36] of the same compound?
Answer: 107%

Question: Which IC50 (second compound 0.0316 µM) does the source give for `COc1cccc2c1C(=O)c1c(O)c3c(c(O)c1C2=O)CC(O)(C(=O)CO)CC3OC1CC(N)C(O)C(C)O1` (centres undefined) + CNC(=O)c1ccc(Nc2nc(OC3CCCC3)c3c(-c4ccc5nc(C)oc5c4)c[nH]c3n2)c(OC)c1 here?
Answer: 247 nM

Question: And the IC50 (second compound 0.1 µM)?
Answer: 254 nM

Question: What about the IC50 (second compound 0.316 µM) of the same compound?
Answer: 227 nM

Question: And the IC50 (second compound 1 µM)?
Answer: 162 nM

Question: What about the IC50 (second compound 3.16 µM) of the same compound?
Answer: 101 nM

Question: And the IC50 (second compound 10 µM)?
Answer: 105 nM

Question: What about the viability, T/C [1] of the same compound?
Answer: 102%

Question: What about the viability, T/C [2] of the same compound?
Answer: 83.6%

Question: What about the viability, T/C [3] of the same compound?
Answer: 40.4%

Question: What about the viability, T/C [4] of the same compound?
Answer: 11.3%

Question: What about the viability, T/C [5] of the same compound?
Answer: 0.76%

Question: What about the viability, T/C [6] of the same compound?
Answer: 0.83%

Question: And the viability, T/C [7]?
Answer: 122%

Question: What about the viability, T/C [8] of the same compound?
Answer: 106%

Question: And the viability, T/C [9]?
Answer: 36.5%

Question: And the viability, T/C [10]?
Answer: 7.7%

Question: And the viability, T/C [11]?
Answer: 0.47%

Question: And the viability, T/C [12]?
Answer: 1.08%

Question: And the viability, T/C [13]?
Answer: 123%

Question: What about the viability, T/C [14] of the same compound?
Answer: 128%

Question: And the viability, T/C [15]?
Answer: 19.1%

Question: What about the viability, T/C [16] of the same compound?
Answer: 4.16%

Question: And the viability, T/C [17]?
Answer: 0.73%

Question: And the viability, T/C [18]?
Answer: 4.66%

Question: What about the viability, T/C [19] of the same compound?
Answer: 121%

Question: What about the viability, T/C [20] of the same compound?
Answer: 76.1%

Question: What about the viability, T/C [21] of the same compound?
Answer: 14.2%

Question: And the viability, T/C [22]?
Answer: 1.56%

Question: What about the viability, T/C [23] of the same compound?
Answer: 0.81%

Question: And the viability, T/C [24]?
Answer: 0.82%

Question: And the viability, T/C [25]?
Answer: 110%

Question: And the viability, T/C [26]?
Answer: 49.8%

Question: What about the viability, T/C [27] of the same compound?
Answer: 17.1%

Question: What about the viability, T/C [28] of the same compound?
Answer: 1.2%

Question: What about the viability, T/C [29] of the same compound?
Answer: 2.45%

Question: What about the viability, T/C [30] of the same compound?
Answer: 1.09%

Question: What about the viability, T/C [31] of the same compound?
Answer: 103%

Question: And the viability, T/C [32]?
Answer: 51.7%

Question: What about the viability, T/C [33] of the same compound?
Answer: 11.6%

Question: And the viability, T/C [34]?
Answer: 1.39%

Question: And the viability, T/C [35]?
Answer: 1.63%

Question: And the viability, T/C [36]?
Answer: 2.68%
